# Data taken from paper PMC11134387, “Cancer-Stem-Cell Phenotype-Guided Discovery of a Microbiota-Inspired Synthetic Compound Targeting NPM1 for Leukemia” (JACS Au, 2024).
# Key:
# OCI-AML3 (NPM1 C+) = test: Cell viability dose-response in AML cell line (NPM1 C+); assay type: cell-based; conditions: Homo sapiens, OCI-AML-3; OCI-AML3, 48 h
# Excerpt: One of the most paradigmatic diseases with critical involvement of CSCs is AML. Among the AML stem cell population, CD34+/CD38- are the only ones capable of inducing leukemia in vivo.[27] […] We focused on proteins that disappeared completely after treatment with the compound and whose concentration could be quantified in untreated samples. According to this profile, 340 proteins, including targets related with stemness and cancer, were identified (see Supplementary Excel file). Among them, nucleophosmin 1 (NPM1) especially attracted our attention, as it is one of the most common mutated proteins in AML.[28] To support that the inhibitory capacity of UCM-13369 observed in CSC cells (see Table S1) is mediated by NPM1, the compound was tested on OCI-AML3 and MOLM13 cell lines, as in vitro AML models bearing mutant (NPM1 C+) and wild-type (WT) protein, respectively.
# The test compound was diluted in PBS.
# NPM1 = test: qPCR of NPM1 expression in OCI-AML3 cells; assay type: cell-based; conditions: OCI-AML3, 10 μM
# Excerpt: We next studied the impact of UCM-13369 in the genes and/or expression levels of NPM1 and NPM1 C+ pathway components (Figure 4A), including the positive regulation of c-Myc[34] and the negative regulation of FBXW7 and the pro-apoptotic CASP8.[35] […] The inhibition of NPM1 was also observed in MOLM13 cells expressing WT NPM1 (Figure S1B). […]
# quantitative real-time PCR (qPCR), or were sorted using a FACS BD INFL UX cell sorter (BD Biosciences, Franklin Lakes, NJ, USA). All cells were maintained at 37 °C in a humidified incubator in an atmosphere of 5% CO2, and passaged every 2–3 days.
# Additionally, they were cultured using RPMI media (Gibco/Life Technologies; Grand Island, NY, USA) supplemented with 10% fetal bovine serum (FBS) (Hyclone) and […]
# Primary cells. […] After 72 h in maintenance cells were ready to start the assays. […]
# Colonospheres, mamospheres and colony formation unit assays. […] After 10 days (mamospheres and colonospheres) and 14 days (CFU-E) we quantified t he number of colonies/spheres and number of cell s (CFU-E) by […]
# RNA and DNA extraction and quantitative PCR (qPCR). […] Gene expression was studied from the extracted RNA, processed into cDNA to quantify the expression of NPM1 and c-MYC. […]
# The relative amount of targets was determined by the comparative Ct method.
# Western blot. […] Lysates wer e cl ear ed by centrifugation (14,000g, 4 °C, 30 min), protein concentration determined by Bradford
# [1] = tested on: primary CD34+ cells from AML patients; test: Flow cytometry CD34-PE/Annexin V-FITC of primary HSCs from AML patients; assay type: cell-based, human; conditions: 5μM, representative sample
# Method: The inhibition of NPM1, especially NPM1 C+ pathway (as shown in Figure 4), by UCM-13369 correlates with the increase of apoptosis observed in treated primary CD34+ cells upon staining with Annexin V (Figure 5C).
# CFU-E and CD34+ primary cells with and without UCM-13369 treatment were analyzed. The following monoclonal antibodies were used: CD34-PE, Annexin V-FITC (BD Biosciences). The cells were incubated with antibodies in PBS on ice for 15 min in the dark. The analysis of CD34+ and Annexin V+ subpopulation was carried out in a flow cytometer FACSCalibur (Becton Dickinson, Citometría y Microscopía de Fluorescencia core facility, UCM) and the data were processed using FlowJo_V10 software.
# FBXW7 = test: Western blot of FBXW7 in OCI-AML3 cells; assay type: cell-based
# Method: We next studied the impact of UCM-13369 in the genes and/or expression levels of NPM1 and NPM1 C+ pathway components (Figure 4A), including the positive regulation of c-Myc[34] and the negative regulation of FBXW7 and the pro-apoptotic CASP8.[35] […] The inhibition of NPM1 was also observed in MOLM13 cells expressing WT NPM1 (Figure S1B).
# Assay (Bio-Rad Labo rato ries, Hercules, CA, USA) and 20 µg of total protein s was loaded onto 10% SDS-PAGE gels followed by transfer onto a nitrocellulose membrane. Blots were incubated with primary antibodies α-NPM1 (Abcam ), α-M YC (Cel l Signaling), α-FBXW7 ( Abcam) and an ti-mouse or anti-rabbit secondary antibodies (BD). An antibody to β-actin was used to check for equivalent protei n loading. Membranes were developed by enhanced chemiluminescenc e (Clarity Weste rn ECL substrate; Bio-Rad Laboratories ). […]
# Proteomic analysis. A supplementary table (Excel file) includes all the data of the proteomic analysis, showing all the proteins identified, not only those ablated in the treated population, but also those found with different expression levels in both populations under study, and even those that were not detected in the control population but were detected in the treated population. Follows the image of a Venn diagram showing the number of proteins detected in each of the pop ulations and the proteins that converg e […]
# MCF-7 = test: Cytotoxic effect in breast tumor cell line (MTT); conditions: Homo sapiens, MCF7, read-out: Viability (%) MCF-7, @5 µM (footnote d)
# Method: The cytotoxic effect was determined in breast (MCF-7) and colon (HCT-116) tumor cell lines using MTT assays.
# Cells were seeded at 3 × 10^4 cells/mL in 96-well plates. The test compound was diluted in PBS. […] Viability was evaluated by MTT or WST-1 and dose/response curves were performed.
smiles,measurement,setting,value
"COc1ccc(C2Cc3[nH]c4ccccc4c3C(CCNCC3CC3)C2N)cc1 (centres unmarked) [4b, 4-{2-[(Cyclopropylmethyl)amino]ethyl}-2-(4-methoxyphenyl)-2,3,4,9-tetrahydro-1H-carbazol-3-amine]",IC50,OCI-AML3 (NPM1 C+),7.26 µM
same,"NPM1 expression, dot plot (in words)",NPM1,decreased NPM1 expression
same,CD34+/AnnexinV+,[1],43.09%
same,FBXW7 levels (in words),FBXW7,upregulated
same,viability at 5 µM,MCF-7,96%
